Measured values reported in PubChem BioAssay AID588764 (Broad Institute, 2011).
Results filed as inconclusive are left out. Active and inactive are the calls of the source. How the calls were made is not given here.

Molecular target: Histone acetyltransferase RTT109 (Candida albicans (strain SC5314 / ATCC MYA-2876)) (UniProt Q5AAJ8)
Test: Rtt109/Vps75 acetyltransferase inhibitor potency, dose response, biochemical, cherry-picked hits, plate reader (AID 588764)
Conditions: Rtt109/Vps75 HAT activity

Sequence of Histone acetyltransferase RTT109 (Candida albicans (strain SC5314 / ATCC MYA-2876)) (Q5AAJ8 whole entry, looked up): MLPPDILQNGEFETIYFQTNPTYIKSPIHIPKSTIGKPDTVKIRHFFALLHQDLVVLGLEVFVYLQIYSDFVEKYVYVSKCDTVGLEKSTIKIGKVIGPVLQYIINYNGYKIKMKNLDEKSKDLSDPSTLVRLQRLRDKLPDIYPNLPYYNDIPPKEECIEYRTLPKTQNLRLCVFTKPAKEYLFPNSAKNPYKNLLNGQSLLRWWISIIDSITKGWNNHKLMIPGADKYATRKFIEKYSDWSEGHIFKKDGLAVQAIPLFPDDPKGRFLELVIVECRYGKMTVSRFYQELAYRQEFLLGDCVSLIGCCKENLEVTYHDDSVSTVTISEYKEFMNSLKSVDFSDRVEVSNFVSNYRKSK

Row | Compound | AC50
1 | Cc1cccc(N2C(S)=C(C#N)C(=O)NC2c2cccs2)c1 (stereo not drawn) | 11.7 µM
2 | COC(=O)/C=C\C(=O)Nc1cccc([N+](=O)[O-])c1 | 5.62 µM

Same assay, conditions: Rtt109/Vps75 HAT activity, at 19.5 µM (top of the series)

Row | Compound | activity change, negative = inhibition
3 | Cc1c(C(=O)Nc2ccc(S(=O)(=O)N(C)C3CCN(C)CC3)cc2)oc2c(Cl)cccc12 | inactive
4 | O=C(NC(=S)Nc1ccc(Oc2ccccc2)cc1)c1ccc(Cl)cc1 | inactive
5 | CCc1sc(C(=O)Nc2cccc(C(C)=O)c2)cc1C | inactive
6 | CC(C)(C)C1CCc2c(sc(NC(=O)CSc3nnc(-c4ccccc4)o3)c2C#N)C1 (stereo not drawn) | inactive
7 | Cc1ccc(/C=C2\SC(=S)N(C(Cc3ccccc3)C(=O)O)C2=O)cc1 (stereo not drawn) | inactive
8 | O=C(O)c1cccc2c1NC(C(=O)O)C1CC(Sc3ccccc3[N+](=O)[O-])C(Cl)C21 (stereo not drawn) | inactive
9 | O=S(=O)(Nc1ccc(O)c(Sc2nc3ccccc3s2)c1)c1cccc2ccccc12 | inactive
10 | O=C(CNC(=O)c1ccncc1)N/N=C/c1cccc([N+](=O)[O-])c1 | inactive
11 | CCCCS(=O)(=O)c1sc2nc(C)cc(C)c2c1N | inactive
12 | CCc1ccccc1NC(=O)C1CCN(C(=O)c2ccc([N+](=O)[O-])cc2)CC1 | inactive
13 | COc1cccc(/C=C2/Sc3ccc(C(=O)NCCCN4CCCC4)cc3NC2=O)c1 | inactive
